Data published in patent US5574010A, “Treatment of pancreatic tumors with peptide YY and analogs thereof” (The Regents of The University of California, priority 1994, dated 1996).

What was measured:
MiaPaCa-2 = test: MTT viability assay, in vitro anti-proliferative activity; type: cell-based, human; conditions: Mia PaCa-2, 36 hours, vs saline control
Procedure: (§1) PANC-1 and MiaPaCa-2 are two human pancreatic adenocarcinomas cancer cell lines which are available commercially from suppliers such as American Type Culture Collection, ATCC (Rockville, Md.). For this example, the two tumor cells were grown in RPMI-1640 culture media supplemented with 10% fetal bovine serum, 29.2 mg/L of glutamine, 25 μg gentamicin, 5 ml penicillin, streptomycin, and fungizone solution (JRH Biosciences, Lenexa, Kans.) at 37° Celsius in a NAPCO water jacketed 5 % CO2 incubator. All cell lines were detached with 0.25 % trypsin (Clonetics, San Diego, Calif.) once to twice a week when a confluent monolayer of tumor cells was achieved. Cells were pelleted for 7 minutes at 500 g in a refrigerated centrifuge at 4 ° Celsius, and resuspended in trypsin free fortified RPMI 1640 culture media. Viable cells were counted on a hemocytometer slide with trypan blue.
(§2) Ten thousand, 20,000, 40,000 and 80,000 cells of each type were added to 96 well microculture plates (Costar, Cambridge, Mass.) in a total volume of 200 μl of culture media per well. Cells were allowed to adhere for 24 hours prior to addition of the PYY or Analog #1 peptides. Fresh culture media was exchanged prior to addition of peptides. In vitro incubation of pancreatic tumor cells with either PYY or Analog #1 was continued for 6 hours and 36 hours in length. PYY was added to cells at doses of 250 pmol, 25 pmol, and 2.5 pmol per well (N =14). Analog #1 was added to cells cultures at doses of 400 pmol, 40 pmol, and 4 pmol per well. Control wells received 2 μl of 0.9% saline to mimic the volume and physical disturbance upon adhered tumor cells. Each 96 well plate contained 18 control wells to allow for comparison within each plate during experimentation. Ninety-six (96) well plates were repeated 6 times with varying concentrations of PYY and Analog #1 in both the PANC-1 and MiaPaCa-2 cells.
(§3) At the end of the incubation period, 3-(4,5-dimethylthiazolyl-2-yl)-2,5-diphenyltetrazolium Bromide, MTr tetrazolium bromide (Sigma, St. Louis, Mo.) was added to fresh culture media at 0.5 mg/ml. Culture media was exchanged and tumor cells were incubated for 4 hours with MTT tetrazolium bromide at 37° Celsius. At the end of incubation, culture media was aspirated. Formazon crystal precipitates were dissolved in 200 μl of dimethyl sulfoxide (Sigma, St. Louis, Mo.). Quantitation of solubilized formazon was performed by obtaining absorption readings at […] wavelength on an ELISA reader (Molecular Devices, Menlo Park, Calif.). The MTT assay measures mitochondrial NADH dependent dehydrogenase activity, and it has been among the most sensitive and reliable method to quantitative in vitro chemotherapy responses of tumor cells. (Alley, M. C., Scudiero, D. A., Monk, A., Hursey, M. L., Dzerwinski, M. J., Fine, D. L., Abbott, B. J., Mayo, J. G., Shoemaker, R. H. and Boyd, M. R., Feasibility of drug screening with panels of human tumor cell lines using a microculture tetrazolium assay Cancer Res., 48:589-601, 1988; Carmichael, J., DeGraff, W. G., Gazdar, A. F., Minna, J. D. and Mitchell, J. B., Evaluation of a tetrazolium-based semiautomated colorimetric assay: Assessment of chemosensitivity testing. Cancer Res., 47:936-942, 1987; McHale, A. P., McHale, L., Use of a tetrazolium based colorimetric assay in assessing photoradiation therapy in vitro. Cancer Lett., 41:315-321, 1988; and Saxton, R. E., Huang, M. Z., Plante D., Fetterman, H. F., Lufkin, R. B., Soudant, J., Castro, D. J., Laser and daunomycin chemophototherapy of human carcinoma cells. J. Clin. Laser Med. and Surg., 10(5):331-336, 1992.)
(§4) Analysis of absorption readings at 550 nm were analyzed by grouping wells of the same test conditions and verifying differences occurring between control and the various peptide concentration treatments by one-way ANOVA. Once statistical significance was achieved, P <0.05, each test group was compared to its paired control group by Student's T-test within each 96 well plate. […]

PANC-1 = test: as above; type: cell-based, human; conditions: 36 hours, vs saline control
Procedure: as §1, §2, §3, §4

human Mia PaCa-2 cells = test: In vivo growth inhibition of orthotopically transplanted pancreatic ductal adenocarcinoma; conditions: male athymic mice, orthotopic Mia PaCa-2; 200 pmol/kg/hr via mini-osmotic pumps for four weeks; vs saline control
Procedure: The human pancreatic ductal adenocarcinoma Mia Paca-2 was examined for in vivo growth inhibition by peptide YY and Analog #1. Seventy thousand to 100,000 human Mia PaCa-2 cells were orthotopically transplanted into 48 male athymic mice. After one week, the animals were treated with either PYY or Analog #1 at 200 pmol/kg/hr via mini-osmotic pumps for four weeks. The paired cultures received saline. At sacrifice, both tumor size and mass were measured. Control mice had significant human cancer growth within the pancreas as evidenced by histologic sections. At 9 weeks, ninety percent (90%) of control mice had substantial metastatic disease.

PYY: 36 amino acid residue peptide amide isolated originally from porcine intestine; the species of the PYY tested is not stated [Peptide YY]
Percent Reduction in Tumor Growth(%) Compared to Control (MiaPaCa-2; 2.5 pmol per well): 0.5% | Percent Reduction in Tumor Growth(%) Compared to Control (MiaPaCa-2; 25 pmol per well): 12.8% | Percent Reduction in Tumor Growth(%) Compared to Control (MiaPaCa-2; 250 pmol per well): 15.4% | Percent Reduction in Tumor Growth(%) Compared to Control (PANC-1; 2.5 pmol per well): 9.8% | Percent Reduction in Tumor Growth(%) Compared to Control (PANC-1; 25 pmol per well): 14.7% | Percent Reduction in Tumor Growth(%) Compared to Control (PANC-1; 250 pmol per well): 25.7% | Tumor mass decreased (human Mia PaCa-2 cells): 27%
